Test results from patent US10078082B2, “Detection of free and protein-bound non-human gal-alpha(1-3)-gal epitope” (National University of Ireland, Galway, priority 2012, dated 2018).

Tests used:
Test in all cases: Competitive ELISA specificity study: inhibition of scFv binding to Gal-α-(1→3)-Gal-BSA by free sugars
Parameters in all cases: species or system chicken
Settings in all cases: highest concentration 1 mg/mL
scFv A11 = tested on: scFv A11
Procedure: (§1) Each scFv was evaluated in a competitive ELISA format using free Gal-α-(1,3)-Gal as standard. Microtitre plate wells were coated and blocked as previously described. Standard solutions were prepared in PBS (pH 7.2), ranging in concentration from 2 μg/ml (5.84 μM) to 20 mg/ml (58.4 mM). For the assay, 50 μl of each standard and buffer blank were added to designated wells in triplicate, followed by 50 μl of a sub-saturating concentration (1 μg/ml) of the appropriate scFv, giving a final standard concentration in the assay of 1 μg/ml (2.92 μM) to 10 mg/ml (29.2 mM). The plate was incubated for 1 hour at 37° C. with shaking After washing, bound scFv was detected as previously described. The ratios of the OD for each standard versus the OD given by the blank (B/Bo) were plotted versus standard concentration and standard curve plotted using SigmaPlot (v11, Systat Software Inc). The detection limits were determined as the concentration corresponding to the mean response for zero standard minus three times the standard deviation (SD). Inhibition of scFv by a panel of free sugars. scFv binding to Gal-α-(1→3)-Gal-BSA was determined against a panel of 21 free form sugars; D-Cellibiose, Melibiose, D-Raffinose, Lactulose, Palatinose, β-Gentibiose, D+ Trehalose, D+ Turanose, L− Fructose, D+ Glucose, Sucrose, Galacto-N-biose, 4β-Galactobiose, gal-α(1-3)-gal-β-(1-4)-gal, gal-α(1-3)-gal-β-(1-4)-glc, gal-α(1-3)-gal-β-(1-4)-gal-all-3)-gal, Laminarbiose, β1-4-D-Xylobiose, N-Acetyl-D-glucoseamine (GlcNAc), Galactose, N-Acetyl-D-lactosamine (LacNAc), (sourced from Sigma Aldrich and Dextra, UK). Inhibitions were performed by serial dilutions of free sugars and a sub-saturating concentration scFv added to each dilution and pre-incubated for 60 minutes at 37° C., prior to performing ELISA against Gal-α-(1→3)-Gal-BSA as used throughout. The percent binding of the scFv was plotted against the […], and the 50% effective dose determined (ED50; dose of free sugar causing 50% displacement of the scFv).

scFv A4 = tested on: scFv A4
Procedure: as §1

scFv G12 = tested on: scFv G12
Procedure: as §1

| Compound | % Maximum inhibition at Max Conc A11 (scFv A11) [%] | % Maximum inhibition at Max Conc A4 (scFv A4) [%] | % Maximum inhibition at Max Conc G12 (scFv G12) [%] |
| --- | --- | --- | --- |
| OC[C@H]1O[C@H](O[C@H]2[C@@H](O)[C@@H](CO)O[C@@H](O[C@H]3[C@H](O)[C@@H](O)C(O)O[C@@H]3CO)[C@@H]2O)[C@H](O)[C@@H](O)[C@H]1O (stereo partly drawn) [gal-α(1,3)-gal-β-(1,4)-glc] | 73.88 | 66.20 | 83.03 |
| OC[C@H]1O[C@H](O[C@H]2[C@@H](O)[C@@H](CO)O[C@@H](O[C@@H]3[C@H](O)[C@@H](O)[C@@H](O[C@H]4[C@@H](O)[C@@H](CO)OC(O)[C@@H]4O)O[C@@H]3CO)[C@@H]2O)[C@H](O)[C@@H](O)[C@H]1O (stereo partly drawn) [gal-α(1,3)-gal-β-(1,4)-gal-α-(1,3)-gal] | 78.41 | 73.48 | 73.54 |
| gal-α(1,3)-gal-BSA [gal-α(1,3)-gal-BSA (NGC)] | 51.06 | 36.4 | 33.93 |
| OCC1OC(OC2C(O)C(CO)OC(OC3C(CO)OC(O)C(O)C3O)C2O)C(O)C(O)C1O (stereo not drawn) [gal-α-(1,3)-gal-β-(1,4)-gal] | 76.83 | 68.18 | 64.43 |
